Assay results published in patent US20230016424A1, “HYBRID AMIDE DERIVATIVES OF AMPHOTERICIN B” (The Board of Trustees of the University of Illinois, priority 2019, published 2023).
In brackets after ≈: the same amount, converted by molar mass. Where two headings read alike, the source gives them in different places.

What was measured:
C. albicans = experiment: MIC; format: cell-based
A. fumigatus 1100 = experiment: MIC; format: cell-based
C. albicans SN250 = experiment: MIC; format: cell-based, Candida albicans
C. tropicalis = experiment: MIC; format: cell-based
[1] = test system: C. albicans SN250, C. albicans, C. krusei, C. glabrata, C. tropicalis, A. fumigatus 91, 1163, 1100; experiment: Average MIC over the tested strains; format: cell-based; details: for MIC: average over the 8 listed strains; for Average MIC for AmB analogue: value of the corresponding AmB analogue, not of the C2’epi compound
A. fumigatus 91 = experiment: MIC; format: cell-based
A. fumigatus 1163 = experiment: MIC; format: cell-based
C. krusei = experiment: MIC; format: cell-based
C. glabrata = experiment: MIC; format: cell-based
[2] = Liver Microsome stability (In Vitro Metabolism); format: in vitro ADME; details: for Remaining (T = NCF60 min): no cofactor 60 min
Description: Working Compound solution: 10 uM in 50 mM potassium phosphate buffer with 9% MeOH and 1% DMSO
Microsome solution: working concentration 0.625 mg/ml
Stopping solution: Cold ACN with 200 ng/ml Tolbutamide and 200 ng/ml Labetalol (4° C.)
Procedure: In the well plates (T5, T10, T20, T30, T60, NCF60 (no cofactor 60)) 10 uL of the compound/control working solution was added (except T0 and matric blank) followed by microsome solution (80 uL) and the mixture was incubated at 37 C for about 10 mins. A solution of potassium phosphate (10 ul of 50 mM) was added to NCF60 well, incubated at 37 C and time counting started. After prewarming 10 ul of NADPH regenerating solution was added to each plate to start the reaction. At different time point 300 uL/well of stopping solution to terminate the reaction. The sampling plates were shaken for 10 mins and the centrifuged for 20 mins at 4000 rpm. The supernatant was half diluted with ultra pure water and the analyzed using LCMS.

Plasma Stability = format: in vitro ADME
Description: Plasma Stability: Procedure: […] Plasma was warmed to 37° C. prior to the experiment and centrifuged for 5 mins at 4000 rpm. […] Each time point was monitored in triplicate (0, 10, 30, 60 and 120 min). 4 uL/well aliquot of the working solution was mixed to the blank plasma and incubated at 37° C. AT each time point samples were quenched with ACN stop solution containing 200 ng/ml Tolbutamide & 200 ng/ml Labetalol at 1:3 ratio and mix well on shaker for 10 min then centrifuge at 4000 rpm for 15 min. A 100 ul aliquot of supernatant was mixed with 100 μL of ultra-pure and submitted for LC-MS/MS analysis.

**Q.** What does the source list for `CC(O)CNC(=O)C1C(O)CC2(O)CC(O)CC(O)C(O)CCC(O)CC(O)CC(=O)OC(C)C(C)C(O)C(C)C=CC=CC=CC=CC=CC=CC=CC(OC3OC(C)C(O)C(N)C3O)CC1O2` (stereo not drawn) [AH]?
**A.** MIC C. albicans (C. albicans): 0.35 µM (≈ 0.343 µg/mL); MIC A. fumigatus 1100 (A. fumigatus 1100): 1 µM (≈ 0.981 µg/mL); MIC C. albicans SN250 (C. albicans SN250): 0.35 µM (≈ 0.343 µg/mL); MIC C. tropicalis (C. tropicalis): 0.45 µM (≈ 0.442 µg/mL); MIC [1]: 0.763 µM; MIC A. fumigatus 91 (A. fumigatus 91): 2 µM (≈ 1.96 µg/mL); MIC A. fumigatus 1163 (A. fumigatus 1163): 1 µM (≈ 0.981 µg/mL); MIC C. krusei (C. krusei): 0.75 µM (≈ 0.736 µg/mL); MIC C. glabrata (C. glabrata): 0.2 µM (≈ 0.196 µg/mL)

**Q.** Which “MIC C. albicans” value (C. albicans) does the source give for `CC1C=CC=CC=CC=CC=CC=CC=CC(OC2OC(C)C(O)C(N)C2O)CC2OC(O)(CC(O)CC(O)C(O)CCC(O)CC(O)CC(=O)OC(C)C(C)C1O)CC(O)C2C(=O)NCC(C)(C)O` (stereo not drawn) [AI] here?
**A.** 0.4 µM (≈ 0.398 µg/mL)

**Q.** What about the “MIC A. fumigatus 1100” value (A. fumigatus 1100) of the same compound?
**A.** 1 µM (≈ 0.995 µg/mL)

**Q.** And the “MIC C. albicans SN250” value (C. albicans SN250)?
**A.** 0.3 µM (≈ 0.299 µg/mL)

**Q.** And the “MIC C. tropicalis” value (C. tropicalis)?
**A.** 0.45 µM (≈ 0.448 µg/mL)

**Q.** And the MIC [1]?
**A.** 0.675 µM

**Q.** And the “MIC A. fumigatus 91” value (A. fumigatus 91)?
**A.** 1 µM (≈ 0.995 µg/mL)

**Q.** What about the “MIC A. fumigatus 1163” value (A. fumigatus 1163) of the same compound?
**A.** 1 µM (≈ 0.995 µg/mL)

**Q.** What about the “MIC C. krusei” value (C. krusei) of the same compound?
**A.** 1 µM (≈ 0.995 µg/mL)

**Q.** What about the “MIC C. glabrata” value (C. glabrata) of the same compound?
**A.** 0.25 µM (≈ 0.249 µg/mL)

**Q.** With `CC1C=CC=CC=CC=CC=CC=CC=CC(OC2OC(C)C(O)C(N)C2O)CC2OC(O)(CC(O)CC(O)C(O)CCC(O)CC(O)CC(=O)OC(C)C(C)C1O)CC(O)C2C(=O)NCC(O)CO` (stereo not drawn) [AK] as the compound, how does the “MIC C. albicans” value (C. albicans) read?
**A.** 0.25 µM (≈ 0.249 µg/mL)

**Q.** What about the “MIC A. fumigatus 1100” value (A. fumigatus 1100) of the same compound?
**A.** 0.75 µM (≈ 0.748 µg/mL)

**Q.** What about the “MIC C. albicans SN250” value (C. albicans SN250) of the same compound?
**A.** 0.15 µM (≈ 0.15 µg/mL)

**Q.** What about the “MIC C. tropicalis” value (C. tropicalis) of the same compound?
**A.** 0.3 µM (≈ 0.299 µg/mL)

**Q.** And the MIC [1]?
**A.** 0.431 µM

**Q.** What about the “MIC A. fumigatus 91” value (A. fumigatus 91) of the same compound?
**A.** 1 µM (≈ 0.997 µg/mL)

**Q.** What about the “MIC A. fumigatus 1163” value (A. fumigatus 1163) of the same compound?
**A.** 0.5 µM (≈ 0.499 µg/mL)

**Q.** And the “MIC C. krusei” value (C. krusei)?
**A.** 0.4 µM (≈ 0.399 µg/mL)

**Q.** And the “MIC C. glabrata” value (C. glabrata)?
**A.** 0.1 µM (≈ 0.0997 µg/mL)

**Q.** With `CC1C=CC=CC=CC=CC=CC=CC=CC(OC2OC(C)C(O)C(N)C2O)CC2OC(O)(CC(O)CC(O)C(O)CCC(O)CC(O)CC(=O)OC(C)C(C)C1O)CC(O)C2C(=O)NC1CC1` (stereo not drawn) [BD] as the compound, how does the “MIC C. albicans” value (C. albicans) read?
**A.** 1 µM (≈ 0.963 µg/mL)

**Q.** And the “MIC A. fumigatus 1100” value (A. fumigatus 1100)?
**A.** 4 µM (≈ 3.85 µg/mL)

**Q.** And the “MIC C. albicans SN250” value (C. albicans SN250)?
**A.** 0.5 µM (≈ 0.482 µg/mL)

**Q.** What about the “MIC C. tropicalis” value (C. tropicalis) of the same compound?
**A.** 0.5 µM (≈ 0.482 µg/mL)

**Q.** What about the MIC [1] of the same compound?
**A.** 3.063 µM

**Q.** And the “Average MIC for AmB analogue” value [1]?
**A.** 0.500 μM

**Q.** What about the “MIC A. fumigatus 91” value (A. fumigatus 91) of the same compound?
**A.** 8 µM (≈ 7.71 µg/mL)

**Q.** And the “MIC A. fumigatus 1163” value (A. fumigatus 1163)?
**A.** 6 µM (≈ 5.78 µg/mL)

**Q.** And the “MIC C. krusei” value (C. krusei)?
**A.** 4 µM (≈ 3.85 µg/mL)

**Q.** What about the “MIC C. glabrata” value (C. glabrata) of the same compound?
**A.** 0.5 µM (≈ 0.482 µg/mL)

**Q.** Which “MIC C. albicans” value (C. albicans) does the source give for `CC1C=CC=CC=CC=CC=CC=CC=CC(OC2OC(C)C(O)C(N)C2O)CC2OC(O)(CC(O)CC(O)C(O)CCC(O)CC(O)CC(=O)OC(C)C(C)C1O)CC(O)C2C(=O)NC1CCC1` (stereo not drawn) [BE] here?
**A.** 2 µM (≈ 1.95 µg/mL)

**Q.** What about the “MIC A. fumigatus 1100” value (A. fumigatus 1100) of the same compound?
**A.** 4 µM (≈ 3.91 µg/mL)

**Q.** And the “MIC C. albicans SN250” value (C. albicans SN250)?
**A.** 1 µM (≈ 0.977 µg/mL)

**Q.** And the “MIC C. tropicalis” value (C. tropicalis)?
**A.** 1 µM (≈ 0.977 µg/mL)

**Q.** What about the MIC [1] of the same compound?
**A.** 3.563 µM

**Q.** And the “Average MIC for AmB analogue” value [1]?
**A.** 1.281 μM

**Q.** What about the “MIC A. fumigatus 91” value (A. fumigatus 91) of the same compound?
**A.** 8 µM (≈ 7.82 µg/mL)

**Q.** And the “MIC A. fumigatus 1163” value (A. fumigatus 1163)?
**A.** 8 µM (≈ 7.82 µg/mL)

**Q.** What about the “MIC C. krusei” value (C. krusei) of the same compound?
**A.** 4 µM (≈ 3.91 µg/mL)

**Q.** What about the “MIC C. glabrata” value (C. glabrata) of the same compound?
**A.** 0.5 µM (≈ 0.489 µg/mL)

**Q.** Which results are given for `CC1C=CC=CC=CC=CC=CC=CC=CC(OC2OC(C)C(O)C(N)C2O)CC2OC(O)(CC(O)CC(O)C(O)CCC(O)CC(O)CC(=O)OC(C)C(C)C1O)CC(O)C2C(=O)NCCO` (stereo not drawn) [Compound AA]?
**A.** MIC C. albicans (C. albicans): 0.225 µM (≈ 0.218 µg/mL); MIC C. albicans (C. albicans; listed as AmBHEA): 0.225 µM (≈ 0.218 µg/mL); MIC A. fumigatus 1100 (A. fumigatus 1100): 0.7 µM (≈ 0.677 µg/mL); MIC A. fumigatus 1100 (A. fumigatus 1100; listed as AmBHEA): 0.7 µM (≈ 0.677 µg/mL); MIC C. albicans SN250 (C. albicans SN250): 0.25 µM (≈ 0.242 µg/mL); MIC C. tropicalis (C. tropicalis): 0.225 µM (≈ 0.218 µg/mL); MIC C. tropicalis (C. tropicalis; listed as AmBHEA): 0.225 µM (≈ 0.218 µg/mL); MIC [1]: 0.44 µM; MIC ([1]; listed as AmBHEA): 0.44 µM; CL ([2]; Dog liver microsomes): <9.6 µL/min/mg; CLint ([2]; Dog liver microsomes): <14 mL/min/kg; Remaining (T = 60 min) ([2]; Dog liver microsomes): 88.5%; T1/2 ([2]; Dog liver microsomes): >145 min; Remaining (T = NCF60 min) ([2]; Dog liver microsomes): 97.4%; CL ([2]; Human liver microsomes): <9.6 µL/min/mg; CLint ([2]; Human liver microsomes): <8.6 mL/min/kg; Remaining (T = 60 min) ([2]; Human liver microsomes): 111%; T1/2 ([2]; Human liver microsomes): >145 min; Remaining (T = NCF60 min) ([2]; Human liver microsomes): 142%; CL ([2]; Monkey liver microsomes): <9.6 µL/min/mg; CLint ([2]; Monkey liver microsomes): <13 mL/min/kg; Remaining (T = 60 min) ([2]; Monkey liver microsomes): 113%; T1/2 ([2]; Monkey liver microsomes): >145 min; Remaining (T = NCF60 min) ([2]; Monkey liver microsomes): 103%; CL ([2]; Mouse liver microsomes): <9.6 µL/min/mg; CLint ([2]; Mouse liver microsomes): <38 mL/min/kg; Remaining (T = 60 min) ([2]; Mouse liver microsomes): 118%; T1/2 ([2]; Mouse liver microsomes): >145 min; Remaining (T = NCF60 min) ([2]; Mouse liver microsomes): 140%; CL ([2]; Rat liver microsomes): <9.6 µL/min/mg; CLint ([2]; Rat liver microsomes): <17 mL/min/kg; Remaining (T = 60 min) ([2]; Rat liver microsomes): 130%; T1/2 ([2]; Rat liver microsomes): >145 min; Remaining (T = NCF60 min) ([2]; Rat liver microsomes): 113%; MIC A. fumigatus 91 (A. fumigatus 91): 1 µM (≈ 0.967 µg/mL); MIC A. fumigatus 91 (A. fumigatus 91; listed as AmBHEA): 1 µM (≈ 0.967 µg/mL); % Remaining at 120 min (Plasma Stability; Human Plasma): 119%; Half Life (Plasma Stability; Human Plasma): >289 min; % Remaining at 120 min (Plasma Stability; Rat Plasma): 108%; Half Life (Plasma Stability; Rat Plasma): >289 min; MIC A. fumigatus 1163 (A. fumigatus 1163): 0.525 µM (≈ 0.508 µg/mL); MIC A. fumigatus 1163 (A. fumigatus 1163; listed as AmBHEA): 0.525 µM (≈ 0.508 µg/mL); MIC C. krusei (C. krusei): 0.45 µM (≈ 0.435 µg/mL); MIC C. krusei (C. krusei; listed as AmBHEA): 0.45 µM (≈ 0.435 µg/mL); MIC C. glabrata (C. glabrata): 0.145 µM (≈ 0.14 µg/mL); MIC C. glabrata (C. glabrata; listed as AmBHEA): 0.145 µM (≈ 0.14 µg/mL)
